One may read the ED50 as the dose that gives a 50% effect, or the effect in half of the subjects. By LD50 is commonly meant the dose expected to kill half of the subjects tested.

Data on eight compounds can be found in US4346094A, “3-Aryl-5-isothiazolecarboxylic acids and related compounds used to lower uric acid levels” (Eli Lilly and Company, priority 1980, dated 1982).

Like-named read-outs stand apart in the source and are kept apart here.

Data set [1] is described as follows: oral administration of ester and amides, percent inhibition in vivo. The method, then: (§1) All of the compounds corresponding to formula I above which applicants have prepared are active in vivo in lowering plasma uric acid levels. […] The first method, the spectrofluorometric method, was modified from the procedure of Sumi et al., Clinica. Chimica. Acta., 73, 233 (1976). Rats were sacrificed by decapitation and their blood collected into vacutainer tubes containing heparin via heparinized glass funnels. The blood was centrifuged for 8 minutes at 4000 rpm after which time the plasma was separated and diluted 1:1 with water. Plasma protein was precipitated by addition of acetic acid to a final concentration of 0.007 molar and boiling the resulting mixture for 5 minutes in Sorval tubes. Clear deproteinized plasma was obtained after centrifugation of the resulting plasma for 30 minutes at 25,000 rpm. Uric acid was assayed as follows: 0.2 ml. aliquots of the clear deproteinized plasma were mixed with 120λ of uricase (0.045 mu/ml.) and incubated for 30 minutes at 27° C. 1.0 ml. of a p-hydroxyphenylacetic acid buffer was added. Samples obtained from feeding rats or dogs serial doses of the compound under test were incubated with the above buffer solution for 30 minutes at 27° C. Fluorescence of the solution was measured in quartz tubes using an Aminco Bowman-Spectrofluorimeter having excitation of 321 nm and emission at 412 nm. Five uric acid standards from 6-30 micromolar were assayed for each test and each standard yielded a linear curve.
The second method was called the HPLC-EC Detection method. Here, blood plasma was collected from rats as described above and from dogs in heparinized syringes from the cefalic vein in the forearm and centrifuged with Sure-Sep to separate plasma. Deproteninized plasma was prepared in each instance by first diluting one volume of plasma with one volume of an internal standard solution, 4 mcg./ml., and then addition of two volumes of 5% trichloroacetic acid. Standards were added to control plasma in the range of 0-8 mcg./ml. of uric acid. […] Uric acid levels were then calculated from peak areas by computer analysis. […]

The target in data set [2] is T1, xanthine oxidase (Bos taurus, UniProt P80457).
T1 construct: purchased Sigma Chemical Company, St. Louis, Mo; host or cells: milk (grade III, chromatographically purified)
T1 sequence (P80457 whole entry): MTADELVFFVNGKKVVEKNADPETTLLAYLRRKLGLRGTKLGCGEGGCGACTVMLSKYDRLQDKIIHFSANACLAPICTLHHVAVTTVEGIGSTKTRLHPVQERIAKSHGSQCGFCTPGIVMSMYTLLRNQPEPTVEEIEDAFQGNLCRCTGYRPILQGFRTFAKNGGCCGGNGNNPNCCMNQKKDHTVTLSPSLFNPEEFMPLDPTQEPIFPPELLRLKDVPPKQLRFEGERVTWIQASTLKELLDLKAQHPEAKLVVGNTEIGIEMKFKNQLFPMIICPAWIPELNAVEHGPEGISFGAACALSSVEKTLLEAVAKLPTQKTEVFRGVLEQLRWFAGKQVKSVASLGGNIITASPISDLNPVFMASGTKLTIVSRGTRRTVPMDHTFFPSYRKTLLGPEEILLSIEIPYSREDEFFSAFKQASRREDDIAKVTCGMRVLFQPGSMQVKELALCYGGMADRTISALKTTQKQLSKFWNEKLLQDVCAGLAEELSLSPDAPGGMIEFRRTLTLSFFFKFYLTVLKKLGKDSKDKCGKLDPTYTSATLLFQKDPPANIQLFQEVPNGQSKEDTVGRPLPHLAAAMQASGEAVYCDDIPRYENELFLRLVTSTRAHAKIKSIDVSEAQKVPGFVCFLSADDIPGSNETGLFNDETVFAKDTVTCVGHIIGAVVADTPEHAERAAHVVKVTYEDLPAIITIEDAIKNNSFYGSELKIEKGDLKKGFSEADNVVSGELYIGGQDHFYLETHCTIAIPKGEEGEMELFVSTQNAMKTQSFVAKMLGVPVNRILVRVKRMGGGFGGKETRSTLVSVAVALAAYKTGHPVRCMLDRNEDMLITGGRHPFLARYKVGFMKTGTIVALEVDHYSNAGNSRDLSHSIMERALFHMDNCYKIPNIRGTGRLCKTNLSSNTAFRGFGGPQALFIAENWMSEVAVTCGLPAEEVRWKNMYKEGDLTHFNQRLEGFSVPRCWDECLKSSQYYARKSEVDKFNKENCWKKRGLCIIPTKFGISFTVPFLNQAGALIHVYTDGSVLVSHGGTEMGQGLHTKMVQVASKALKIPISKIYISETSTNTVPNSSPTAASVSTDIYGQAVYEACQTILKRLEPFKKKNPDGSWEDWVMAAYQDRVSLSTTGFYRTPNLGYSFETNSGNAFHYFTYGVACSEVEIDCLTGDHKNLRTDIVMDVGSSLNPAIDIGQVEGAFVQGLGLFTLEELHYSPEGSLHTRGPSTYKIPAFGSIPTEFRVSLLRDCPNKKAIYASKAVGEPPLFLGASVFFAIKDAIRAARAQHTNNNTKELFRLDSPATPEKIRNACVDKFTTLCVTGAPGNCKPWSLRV
The data set can be described thus: in vitro xanthine oxidase assay (rate of uric acid formation from xanthine). It is filed as biochemical. The method, then: Since uric acid is produced by the oxidation of, first, hypoxanthine to xanthine and, second, of xanthine to uric acid via the enzyme, xanthine oxidase, an inhibitor of xanthine oxidase in vivo would obviously decrease the uric acid concentrations in the blood.
Xanthine oxidase activity was measured at room temperature by the rate of uric acid formation from xanthine substrate. In a total volume of 1 ml., the incubation mixture contained 50 micromoles of potassium phosphate buffer at pH 7.4, 0.05 micromoles of xanthine and 0.01 units of enzyme preparation (chromatographically purified milk xanthine oxidase, grade III, obtained from Sigma Chemical Company, St. Louis, Mo.). The absorbence change at 292 nm was recorded by a Gilford recording spectrophotometer and the uric acid formed was calculated using an extinction coefficient of 12 mM^-1 Cm^-1 at 292 nm.

The test system of data set [3] is plasma uric acid. The data set can be described thus: in vivo lowering of plasma uric acid in rats, oral (ED50). The note with it: Rattus norvegicus, read-out: ED50 (dose which reduces plasma level of uric acid by one-half). How it is done: as §1
The second method was called the HPLC-EC Detection method. Here, blood plasma was collected from rats as described above and from dogs in heparinized syringes from the cefalic vein in the forearm and centrifuged with Sure-Sep to separate plasma. Deproteninized plasma was prepared in each instance by first diluting one volume of plasma with one volume of an internal standard solution, 4 mcg./ml., and then addition of two volumes of 5% trichloroacetic acid. Standards were added to control plasma in the range of 0-8 mcg./ml. of uric acid. Samples obtained by feeding graded doses of drug under test to dogs or rats were mixed for 30 seconds and then centrifuged in an Eppendorf microcentrifuge. Supernates were diluted 1:10 in column buffer and assayed for uric acid. Internal standards used were 3-methyluric acid for the rat samples and 3,9-dimethyluric acid for dog samples. Assays were performed as follows using a Bioanalytic Systems Inc. LC-44 analyser and an electrochemical detector system based on an Altex model 110 pump coupled with a CP-O carbon paste electrodetector. Samples for assay were put into a DuPont 834 autosampler and automatically injected into a laboratory packed stainless steel column (4.1 mm id, 1/4" od 25 cm.1) containing reverse phase packing (sperisorb. O.D. 5μ Regis Chemical Co.). The column buffers employed were 0.1 M disodium phosphate, 0.05 M citric acid and 10% methanol for rat samples; 0.1 M disodium phosphate, 10% methanol and citric acid titrated at pH 6.5 for dog samples. The same internal standards were employed as before. Retention times for uric acid, 3-methyluric acid and 3,9-dimethyluric acid were established. Uric acid levels were then calculated from peak areas by computer analysis. Table V which follows gives the oral ED50 in rats for a group of the preferred compounds of this invention (those in which the 3-position of the isothiazole ring carries a 3-trifluoromethylphenyl group). […]

Data set [4] in a line: oral acute toxicity in mice (LD50). The note with it: mouse, in vivo; for therapeutic index (LD50/ED50): oral LD50 mice / oral ED50 rats, read-out: Ratio of LD50 to ED50; for LD50: oral, mice, read-out: LD50 (dose which kills one-half of the animals). From the text:
The compounds represented by the above formula are also relatively non-toxic. In column 3 of Table V are listed the oral LD50 for mice in mg. per kg. for each of the compounds of column 1 (dose which kills one-half of the animals). Finally, column 4 in Table V gives the ratio of LD50 to ED50. It will be seen that the ratio of the LD50 to the ED50 is quite high, giving a substantial margin of safety for using the compounds of this invention in treating gout in mammals, particularly humans.

The mark [5] stands for this setting: milk xanthine oxidase 0.01 units, 0.05 micromoles xanthine in 1 ml, pH 7.4, room temperature, 292 nm, read-out: I50 (concentration of drug which inhibits 50% of the oxidation of xanthine to uric acid by the xanthine oxidase preparation) (converted).

On to `CNC(=O)c1snc(-c2cccc(C(F)(F)F)c2)c1N` [R=NHCH3, N-methyl 3-(3-trifluoromethylphenyl)-4-amino-5-isothiazolecarboxamide], for which the “Percent Inhibition” value in data set [1] (oral dosage 25 mg.kg) is 32%.
Regarding `O=C(O)c1snc(-c2cccc(C(F)(F)F)c2)c1Br` [R=3-CF3, X=Br, 3-(3-trifluoromethylphenyl)-4-bromo-5-isothiazolecarboxylic acid], in data set [2], the IC50 is 0.0511 µM. Also, the ED50 in data set [3] amounted to 5.2 mg/kg. Besides, in data set [4], the therapeutic index (LD50/ED50) was about 50 and the 50% lethal dose (LD50) was about 260 mg/kg.
In data set [2], `O=C(O)c1snc(-c2cccc(C(F)(F)F)c2)c1Cl` [R=3-CF3, X=Cl, 3-(3-trifluoromethylphenyl)-4-chloro-5-isothiazolecarboxylic acid] had an IC50 of 0.0325 µM. Also, in data set [3], the ED50 came to 6.4 mg/kg. In data set [4], the therapeutic index (LD50/ED50) is 21.6 and the LD50 amounted to 138 ± 12 mg/kg.
Consider `COC(=O)c1snc(-c2cccc(C(F)(F)F)c2)c1N` [R=OCH3, Methyl 3-(3-trifluoromethylphenyl)-4-amino-5-isothiazolecarboxylate], for which the “Percent Inhibition” value in data set [1] (oral dosage 25 mg.kg) worked out at 64%.
`NC(=O)c1snc(-c2cccc(C(F)(F)F)c2)c1N` [R=NH2, 3-(3-trifluoromethylphenyl)-4-amino-5-isothiazolecarboxamide]: in data set [1] (oral dosage 50 mg.kg), the “Percent Inhibition” value came out at 13%.
In the case of `Nc1c(-c2cccc(C(F)(F)F)c2)nsc1C(=O)O` [R=3-CF3, R^1=H, 3-(3-trifluoromethylphenyl)-4-amino-5-isothiazolecarboxylic acid], the IC50 in data set [2] (setting [5]) was 0.0763 µM. Besides, the ED50 in data set [3] came out at 17.5 mg/kg. Further, in data set [4], the LD50 amounted to 798 ± 66 mg/kg.
Regarding `O=C(O)c1cc(-c2cccc(C(F)(F)F)c2)ns1` [R=3-CF3, X=H, 3-(3-trifluoromethylphenyl)-5-isothiazolecarboxylic acid], the IC50 in data set [2] (setting [5]) was 0.0549 µM. For the same compound, in data set [3], the 50% effective dose (ED50) was 15 mg/kg. For the same compound, in data set [4], the therapeutic index (LD50/ED50) came out at 13.4 and the LD50 was 201 ± 13 mg/kg.
As for `O=C(O)c1snc(-c2cccc(C(F)(F)F)c2)c1O` [R=3-CF3, X=OH, 3-(3-trifluoromethylphenyl)-4-hydroxy-5-isothiazolecarboxylic acid], the IC50 in data set [2] (setting [5]) was 0.0256 µM. Further, the ED50 in data set [3] was found to be 18 mg/kg. Also, in data set [4], the therapeutic index (LD50/ED50) was 40 and the LD50 is 727 ± 35 mg/kg.
